{"source": "paper PMC10746112", "about": "“Synthesis and Pro-Apoptotic Effects of Nitrovinylanthracenes and Related Compounds in Chronic Lymphocytic Leukaemia (CLL) and Burkitt’s Lymphoma (BL)” (Molecules, 2023)", "key": {"[1]": {"system": "MUTU-1 cells", "set-up": "method as in earlier work", "details": "nitrostyrenes and taxol, MTT assay, reported data; cited from earlier work"}, "[2]": {"system": "Ramos BL cell line", "test": "alamarBlue cell viability assay", "type": "cell-based", "details": "Homo sapiens, 24 h", "procedure": "(§1) Cells were seeded at a density of 2.5 × 10^4 cells/well (MCF-7, MDA-MB-231 cells), 1 × 10^4 cells/well (HL-60 cells), 1–5 × 10^4 cells per well (BL MUTU-I, DG-75 cells) and 2 × 10^5 cells/well [HG-3, PGA-1 (CLL cells)], Ramos, BJAB (BL cells) (200 μL per well), in 96-well plates. Cells were treated with the desired drug concentration for the appropriate time for each cell type, and the samples were incubated as required. alamarBlue (20 μL) was then added to each well and the samples further incubated in the dark at 37 °C for 4 h. Wells containing only reagent and cell culture medium in the absence of cells were used as blank controls. Ethanol was used as a vehicle, and cells were treated with 1% ethanol (v/v) in all experiments. The 96-well plates were analysed on a fluorescence plate reader (SpectraMax Gemini, Molecular Devices) (emission and excitement wavelengths of 590 nm and 544 nm, respectively), and the fluorescence was recorded. The decrease in cell viability was then calculated with reference to the vehicle samples (100% viability). EMEM medium with the addition of alamarBlue was used as a blank. Vehicle-treated cells were considered to be 100% viable, and the viabilities of each compound was calculated accordingly. […] All biochemical assays were performed in triplicate on at least three independent occasions, and the mean values were determined."}, "[3]": {"system": "Bjab BL cell line", "test": "alamarBlue cell viability assay", "type": "cell-based", "details": "Homo sapiens, 24 h", "procedure": "as §1"}, "[4]": {"system": "HG-3 CLL cells", "test": "Inhibitor studies (NAC, Z-VAD-FMK), Annexin V/PI FACS", "type": "cell-based", "details": "48 h", "procedure": "(§2) Additional annexin V/PI FACS analysis was carried out in the presence of a reactive oxygen species (ROS) inhibitor (N-acetylcysteine) and a pan-caspase inhibitor (Z-VAD-FMK) in order to study their effects (if any) on the pro-apoptotic effects of 11h (Figure 6). […] Similar results were obtained in the HG-3 cell line at 2.5 µM (90% to 31%) and 5 µM of 11h (84% to 51%). In the presence of the caspase inhibitor Z-VAD-FMK ([…]), the apoptosis induced by compound 11h decreased from 63% to 25% at 2.5 µM and from 79% to 43% at 5 µM in the PGA1 cell line. Similar results were obtained in the HG-3 cell line at 2.5 µM (84% to 29%) and 5 µM (74% to 50%). These findings indicate that both caspases and ROS may be involved in the mechanism of apoptosis for compound 11h.\n(§3) The HG-3 and PGA-1 CLL cells (5 × 10^4 cells/mL) were pre-treated at 37 °C with either 5 mM N-acetylcysteine (NAC) for 1 h or 40 μM caspase inhibitor (Z-VAD-FMK; MBL International, Co., Woburn, MA, USA) for 4 h prior to treatment with (11 h at 5 μM) for 48 h. Annexin V/PI FACS analysis was then carried out as described above in Section 4.5."}, "[5]": {"system": "PGA-1 CLL cells", "test": "Inhibitor studies (NAC, Z-VAD-FMK), Annexin V/PI FACS", "type": "cell-based", "details": "48 h", "procedure": "as §2, §3"}, "[6]": {"system": "MCF-7 human breast cancer cells", "test": "alamarBlue cell viability assay", "details": "MCF7, 72 h"}, "[7]": {"system": "peripheral blood mononuclear cells (PBMCs)", "test": "viability of peripheral blood mononuclear cells", "type": "cell-based, human", "details": "24 h, healthy donor PBMCs", "procedure": "(§4) The nitrostyrene 11h was evaluated for its cytotoxic effect on healthy donor peripheral blood mononuclear cells (PBMCs) to determine the selective toxicity of compounds containing the nitrostyrene pharmacophore on malignant BL cell lines over normal blood cells. Compound 11h was evaluated at 1 μM and 10 μM concentrations over a 24 h treatment time (Supplementary Information, Table S8).\nas §1\n(§5) Peripheral blood was obtained from healthy donors (n = 2) after informed consent was received. The blood was then placed into a 50 mL falcon tube and diluted with an equal volume of phosphate-buffered saline (PBS). PBMCs were isolated using density gradient centrifugation using LymphoPrep as described previously Approval for this study was obtained from the School of Pharmacy and Pharmaceutical Sciences Trinity College Dublin Research Ethics Committee (2020-06-01-MS)."}, "[8]": {"test": "viability of peripheral blood mononuclear cells", "type": "cell-based, human", "details": "human, healthy donor PBMCs", "procedure": "as §4, §1, §5"}, "[9]": {"system": "HeLa cervical cancer cells", "test": "alamarBlue cell viability assay", "details": "Homo sapiens, 24 h"}, "[10]": {"system": "DG-75 cells", "set-up": "method as in earlier work", "details": "nitrostyrenes and taxol, MTT assay, reported data; cited from earlier work"}}}
{"smiles": "C/C(=C\\c1cccc(Cl)c1)[N+](=O)[O-]", "note": "[Compound 11h]", "values": [{"measurement": "IC50", "setting": "[1]", "result": 880, "unit": "nM"}, {"measurement": "viability at 1 µM", "setting": "[2]; read-out: % Viable Cells Remaining Ramos 24 h 1 µM", "result": 27.2, "unit": "%"}, {"measurement": "viability at 10 µM", "setting": "[2]; read-out: % Viable Cells Remaining Ramos 24 h 10 µM", "result": 5.1, "unit": "%"}, {"measurement": "viability at 1 µM", "setting": "[3]; read-out: % Viable Cells Remaining Bjab 24 h 1 µM", "result": 90.1, "unit": "%"}, {"measurement": "viability at 10 µM", "setting": "[3]; read-out: % Viable Cells Remaining Bjab 24 h 10 µM", "result": 46.2, "unit": "%"}, {"measurement": "apoptosis", "setting": "[4]; HG-3, 2.5 µM compound, in the presence of NAC", "result": 31, "unit": "%"}, {"measurement": "apoptosis", "setting": "[4]; HG-3, 2.5 µM compound, in the presence of Z-VAD-FMK", "result": 29, "unit": "%"}, {"measurement": "apoptosis", "setting": "[4]; HG-3, 2.5 µM compound, without NAC", "result": 90, "unit": "%"}, {"measurement": "apoptosis", "setting": "[4]; HG-3, 2.5 µM compound, without Z-VAD-FMK", "result": 84, "unit": "%"}, {"measurement": "apoptosis", "setting": "[4]; HG-3, 5 µM compound, in the presence of NAC", "result": 51, "unit": "%"}, {"measurement": "apoptosis", "setting": "[4]; HG-3, 5 µM compound, in the presence of Z-VAD-FMK", "result": 50, "unit": "%"}, {"measurement": "apoptosis", "setting": "[4]; HG-3, 5 µM compound, without NAC", "result": 84, "unit": "%"}, {"measurement": "apoptosis", "setting": "[4]; HG-3, 5 µM compound, without Z-VAD-FMK", "result": 74, "unit": "%"}, {"measurement": "apoptosis", "setting": "[5]; PGA1, 2.5 µM compound, in the presence of NAC", "result": 21, "unit": "%"}, {"measurement": "apoptosis", "setting": "[5]; PGA1, 2.5 µM compound, in the presence of Z-VAD-FMK", "result": 25, "unit": "%"}, {"measurement": "apoptosis", "setting": "[5]; PGA1, 2.5 µM compound, without NAC", "result": 68, "unit": "%"}, {"measurement": "apoptosis", "setting": "[5]; PGA1, 2.5 µM compound, without Z-VAD-FMK", "result": 63, "unit": "%"}, {"measurement": "apoptosis", "setting": "[5]; PGA1, 5 µM compound, in the presence of NAC", "result": 33, "unit": "%"}, {"measurement": "apoptosis", "setting": "[5]; PGA1, 5 µM compound, in the presence of Z-VAD-FMK", "result": 43, "unit": "%"}, {"measurement": "apoptosis", "setting": "[5]; PGA1, 5 µM compound, without NAC", "result": 88, "unit": "%"}, {"measurement": "apoptosis", "setting": "[5]; PGA1, 5 µM compound, without Z-VAD-FMK", "result": 79, "unit": "%"}, {"measurement": "viability at 1 µM", "setting": "[6]; read-out: % Viable Cells Remaining MCF-7 72 h 1 µM", "result": 94.3, "unit": "%"}, {"measurement": "viability at 10 µM", "setting": "[6]; read-out: % Viable Cells Remaining MCF-7 72 h 10 µM", "result": 29.7, "unit": "%"}, {"measurement": "PBMCs % viability", "setting": "[7]; 1 µM", "result": "73.66±3.725", "unit": "%"}, {"measurement": "PBMCs % viability", "setting": "[7]; 10 µM", "result": "34.08±9.587", "unit": "%"}, {"measurement": "viability at 24 h, 1 µM", "setting": "[8]; 1 µM", "result": 74, "unit": "%"}, {"measurement": "viability at 24 h, 10 µM", "setting": "[8]; 10 µM", "result": 34.1, "unit": "%"}, {"measurement": "viability at 1 µM", "setting": "[9]; read-out: % Viable Cells Remaining HeLa 24 h 1 µM", "result": 90.6, "unit": "%"}, {"measurement": "viability at 10 µM", "setting": "[9]; read-out: % Viable Cells Remaining HeLa 24 h 10 µM", "result": 23.2, "unit": "%"}, {"measurement": "IC50", "setting": "[10]", "result": 2250, "unit": "nM"}]}
